Reference: publication PMC11855230, “Oligoethylene Phosphoramidate‐Based Kinase Inhibitor Prodrugs – Solubility, Enzyme Inhibition, and Hydrolysis” (Chemistry (Weinheim an Der Bergstrasse, Germany), 2025)
Values after ≈ are worked out from the molar mass of the structure shown. Values joined by “and” are separate entries in the source; they are usually repeats but may differ in a detail not shown here. Identical values can stand only once.

system: not listed separately; assay: Dynamic light scattering (DLS) of drug‐conjugates in water; format: physicochemical; details: DLS in water, at the concentration given per compound (Figures S2–S5)
Method: To study, whether self‐assembly into micelles might have an effect on the solubility limit of the prodrugs, we perform dynamic light scattering (DLS) of the drug‐conjugates in water. […] Micelles below 6 nm (Cer‐OEG8 , Cri‐OEG3 , Cri‐OEG8 , Pal‐OEG3 , Rib‐OEG2 , and Rib‐OEG3 ) are potentially affected by renal clearance.
Dynamic Light Scattering (DLS): Possible self‐assemblies are investigated with DLS Nano‐Zetasizer (Malvern Instruments) at 25 °C with a scattering angle of 173° at λ=633 nm.

| Structure (SMILES) | PDI | hydrodynamic diameter |
| --- | --- | --- |
| COCCOCCOP(=O)(OCCOCCOC)N1CCC(c2cc(OC(C)C)c(Nc3ncc(Cl)c(Nc4ccccc4S(=O)(=O)C(C)C)n3)cc2C)CC1 [Cer‐OEG2] | 0.46 | 565 nm |
| COCCOCCOCCOP(=O)(OCCOCCOCCOC)N1CCC(c2cc(OC(C)C)c(Nc3ncc(Cl)c(Nc4ccccc4S(=O)(=O)C(C)C)n3)cc2C)CC1 [Cer‐OEG3] | 0.05 | 279 nm |
| COCCOCCOP(=O)(OCCOCCOC)N1CCC(n2cc(-c3cnc(N)c(O[C@H](C)c4c(Cl)ccc(F)c4Cl)c3)cn2)CC1 [Cri‐OEG2] | 0.03 | 151 nm |
| COCCOCCOCCOP(=O)(OCCOCCOCCOC)N1CCC(n2cc(-c3cnc(N)c(O[C@H](C)c4c(Cl)ccc(F)c4Cl)c3)cn2)CC1 [Cri‐OEG3] | 0.02 | 3.7 nm |
| COCCOCCOCCOCCOCCOCCOCCOCCOP(=O)(OCCOCCOCCOCCOCCOCCOCCOCCOC)N1CCC(n2cc(-c3cnc(N)c(O[C@H](C)c4c(Cl)ccc(F)c4Cl)c3)cn2)CC1 [Cri‐OEG8] | 0.36 | 3.3 nm |
| COCCOCCOP(=O)(OCCOCCOC)N1CCN(c2ccc(Nc3ncc4c(C)c(C(C)=O)c(=O)n(C5CCCC5)c4n3)nc2)CC1 [Pal‐OEG2] | 0.17 | 264 nm |
| COCCOCCOCCOP(=O)(OCCOCCOCCOC)N1CCN(c2ccc(Nc3ncc4c(C)c(C(C)=O)c(=O)n(C5CCCC5)c4n3)nc2)CC1 [Pal‐OEG3] | 0.74 | 5 nm |
| COCCOCCOP(=O)(OCCOCCOC)N1CCN(c2ccc(Nc3ncc4cc(C(=O)N(C)C)n(C5CCCC5)c4n3)nc2)CC1 [Rib‐OEG2] | 0.22 | 2.5 nm |
| COCCOCCOCCOP(=O)(OCCOCCOCCOC)N1CCN(c2ccc(Nc3ncc4cc(C(=O)N(C)C)n(C5CCCC5)c4n3)nc2)CC1 [Rib‐OEG3] | 0.15 | 1.8 nm |

molecular target: T1, ROS proto‐oncogene 1 (ROS1) (Homo sapiens, UniProt P08922); assay: ROS1 cell free enzyme (kinase) inhibition assay, luminescence; format: biochemical; details: 1 % DMSO, duplicates
T1 construct: purchased biomol
Method: (§1) Apart from solubility and self‐assembly, we investigate the inhibitory potential against the respectively targeted receptors.
(§2) Enzyme Binding Studies (ROS1):[21] ROS1 assays are performed with the following substances: Cer‐OEG2 , Cer‐OEG3 , Cer‐OEG8 , Cri‐OEG2 , Cri‐OEG3 and Cri‐OEG8 . The instructions are followed with some specifications: DTT (10 μL of 1 M DTT to 1 mL buffer) is added to the buffer solution and the assay is performed with 1 % DMSO in the final reaction volume. Serial dilutions of inhibitor (5 μL) are mixed with 20 μL enzyme (5 ng/μL), 5 μL of IGF‐1Rtide (1 mg/mL) and 1 μL ATP solution (500 μM) in a 96‐well plate. The blank contains no enzyme and no inhibitor. The positive control contains enzyme but no inhibitor. The receptor inhibitory rate is calculated from the luminescence as IC50. […] Luminescence is recorded on Promega GloMax Navigator Microplate Luminometer. Samples are prepared in duplicates.

T1 sequence (P08922 28-2347): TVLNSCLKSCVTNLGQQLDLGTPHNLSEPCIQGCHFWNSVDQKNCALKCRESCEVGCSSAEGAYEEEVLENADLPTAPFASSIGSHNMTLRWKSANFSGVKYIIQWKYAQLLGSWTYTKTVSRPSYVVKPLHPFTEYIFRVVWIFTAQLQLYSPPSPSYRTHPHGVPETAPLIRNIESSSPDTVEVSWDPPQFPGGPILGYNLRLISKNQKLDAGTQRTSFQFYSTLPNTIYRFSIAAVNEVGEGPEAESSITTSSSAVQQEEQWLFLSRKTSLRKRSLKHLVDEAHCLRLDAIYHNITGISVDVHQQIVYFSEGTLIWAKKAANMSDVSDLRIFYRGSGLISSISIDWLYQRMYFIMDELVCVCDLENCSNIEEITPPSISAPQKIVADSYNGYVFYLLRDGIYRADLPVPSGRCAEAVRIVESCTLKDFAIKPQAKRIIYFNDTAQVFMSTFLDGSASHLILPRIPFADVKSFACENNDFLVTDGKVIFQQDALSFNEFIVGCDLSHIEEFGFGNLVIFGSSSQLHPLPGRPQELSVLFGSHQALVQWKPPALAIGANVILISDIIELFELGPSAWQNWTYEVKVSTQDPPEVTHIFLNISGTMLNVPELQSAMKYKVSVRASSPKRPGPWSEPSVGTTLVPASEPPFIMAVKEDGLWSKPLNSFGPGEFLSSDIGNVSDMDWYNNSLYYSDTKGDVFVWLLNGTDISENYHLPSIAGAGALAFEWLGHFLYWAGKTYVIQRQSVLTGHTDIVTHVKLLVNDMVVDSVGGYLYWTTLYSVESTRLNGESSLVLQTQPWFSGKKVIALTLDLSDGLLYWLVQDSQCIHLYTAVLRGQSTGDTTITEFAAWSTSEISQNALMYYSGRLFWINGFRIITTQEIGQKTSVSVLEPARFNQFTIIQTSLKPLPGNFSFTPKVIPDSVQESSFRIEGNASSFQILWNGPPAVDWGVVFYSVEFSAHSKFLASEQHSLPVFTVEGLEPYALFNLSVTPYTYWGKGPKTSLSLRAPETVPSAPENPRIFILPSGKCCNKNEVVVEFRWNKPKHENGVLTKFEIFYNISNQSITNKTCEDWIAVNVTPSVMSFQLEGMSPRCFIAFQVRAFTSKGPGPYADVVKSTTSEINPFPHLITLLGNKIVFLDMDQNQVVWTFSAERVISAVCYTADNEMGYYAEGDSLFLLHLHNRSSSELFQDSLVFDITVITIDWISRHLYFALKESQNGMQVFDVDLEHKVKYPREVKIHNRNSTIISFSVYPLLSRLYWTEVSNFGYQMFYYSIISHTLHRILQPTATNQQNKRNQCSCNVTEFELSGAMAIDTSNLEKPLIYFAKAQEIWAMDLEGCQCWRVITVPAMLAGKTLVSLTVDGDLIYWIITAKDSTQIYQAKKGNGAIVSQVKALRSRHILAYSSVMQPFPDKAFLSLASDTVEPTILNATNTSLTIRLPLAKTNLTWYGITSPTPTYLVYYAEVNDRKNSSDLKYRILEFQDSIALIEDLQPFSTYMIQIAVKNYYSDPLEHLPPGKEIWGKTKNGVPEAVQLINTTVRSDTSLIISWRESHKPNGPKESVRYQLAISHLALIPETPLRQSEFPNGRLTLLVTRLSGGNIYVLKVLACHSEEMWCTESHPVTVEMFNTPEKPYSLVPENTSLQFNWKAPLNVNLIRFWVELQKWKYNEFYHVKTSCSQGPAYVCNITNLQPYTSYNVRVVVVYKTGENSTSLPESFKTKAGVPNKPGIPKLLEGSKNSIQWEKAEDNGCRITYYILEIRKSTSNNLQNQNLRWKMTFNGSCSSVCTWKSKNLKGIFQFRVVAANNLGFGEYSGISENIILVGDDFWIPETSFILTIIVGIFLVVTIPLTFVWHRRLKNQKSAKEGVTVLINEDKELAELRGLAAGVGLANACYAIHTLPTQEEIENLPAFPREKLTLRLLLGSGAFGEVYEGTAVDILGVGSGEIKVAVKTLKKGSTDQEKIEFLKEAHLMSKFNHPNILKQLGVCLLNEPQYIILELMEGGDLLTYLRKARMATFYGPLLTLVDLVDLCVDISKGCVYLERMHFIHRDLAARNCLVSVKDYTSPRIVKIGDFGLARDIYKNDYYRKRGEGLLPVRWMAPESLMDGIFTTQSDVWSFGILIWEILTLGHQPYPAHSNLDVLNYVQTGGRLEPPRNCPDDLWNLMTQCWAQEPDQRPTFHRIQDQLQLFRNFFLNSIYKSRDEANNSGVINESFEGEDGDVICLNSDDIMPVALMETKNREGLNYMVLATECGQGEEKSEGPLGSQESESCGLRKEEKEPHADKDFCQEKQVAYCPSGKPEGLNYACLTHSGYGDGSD

| Structure (SMILES) | IC50 |
| --- | --- |
| COCCOCCOP(=O)(OCCOCCOC)N1CCC(c2cc(OC(C)C)c(Nc3ncc(Cl)c(Nc4ccccc4S(=O)(=O)C(C)C)n3)cc2C)CC1 [Cer‐OEG2] | 100 nM |
| COCCOCCOCCOP(=O)(OCCOCCOCCOC)N1CCC(c2cc(OC(C)C)c(Nc3ncc(Cl)c(Nc4ccccc4S(=O)(=O)C(C)C)n3)cc2C)CC1 [Cer‐OEG3] | 45 nM |
| COCCOCCOP(=O)(OCCOCCOC)N1CCC(n2cc(-c3cnc(N)c(O[C@H](C)c4c(Cl)ccc(F)c4Cl)c3)cn2)CC1 [Cri‐OEG2] | 50 nM |
| COCCOCCOCCOP(=O)(OCCOCCOCCOC)N1CCC(n2cc(-c3cnc(N)c(O[C@H](C)c4c(Cl)ccc(F)c4Cl)c3)cn2)CC1 [Cri‐OEG3] | 45 nM |
| COCCOCCOCCOCCOCCOCCOCCOCCOP(=O)(OCCOCCOCCOCCOCCOCCOCCOCCOC)N1CCC(n2cc(-c3cnc(N)c(O[C@H](C)c4c(Cl)ccc(F)c4Cl)c3)cn2)CC1 [Cri‐OEG8] | 140 nM |

system: not listed separately; assay: Solubility limit in water (kinetic solubility) by UV/Vis optical density at 600 nm; format: physicochemical; details: kinetic from dmso stock, absorption at 600 nm, read-out: c sol (water), solubility limit in water
Text: With all purified compounds in hand, we start to analyze the different properties of the conjugates and discuss the influence of the OEG‐chain lengths. We determine the solubility in water with UV/Vis spectroscopy by measuring the optical density at 600 nm. The absorption (A) is plotted against varying concentration (c) of the drug conjugates (see Figure S1). In the range, in which the drug and their conjugates are still soluble, A can be fitted linearly. When the solubility limit is reached, the drug crashes out of solution leading to scattering and reduced transmission manifesting a threshold, upon which the increase in absorption is fitted with a second line of higher slope. The intersection between the two linear fits gives the critical concentration for the kinetic solubility c sol. Detailed solubility plots can be found in the supporting information (see Figure S1). In our previous study with n=4, the solubility of all three kinase inhibitor prodrugs in water is improved over the native drug. However, the extent of improvement varies between the different kinase inhibitor prodrugs. For a better overview, we have included the performance of our previous study (see Figure 2).[21] […] We observe an improvement of solubility upon conjugation with all of our different OEG‐phosphates.
UV‐Vis Spectroscopy: Changes in solubility are measured with a Lambda 365 spectrometer by PerkinElmer supplied with UV WinLab software. Samples are prepared in water and placed in a 1 cm quartz cuvette.

| Structure (SMILES) | solubility |
| --- | --- |
| COCCOCCOCCOP(=O)(OCCOCCOCCOC)N1CCC(n2cc(-c3cnc(N)c(O[C@H](C)c4c(Cl)ccc(F)c4Cl)c3)cn2)CC1 [Cri‐OEG3] | 19.1 mM (≈ 15700 µg/mL) |
| COCCOCCOCCOCCOCCOCCOCCOCCOP(=O)(OCCOCCOCCOCCOCCOCCOCCOCCOC)N1CCC(n2cc(-c3cnc(N)c(O[C@H](C)c4c(Cl)ccc(F)c4Cl)c3)cn2)CC1 [Cri‐OEG8] | ≤ 4.62 mM |
| COCCOCCOCCOP(=O)(OCCOCCOCCOC)N1CCN(c2ccc(Nc3ncc4c(C)c(C(C)=O)c(=O)n(C5CCCC5)c4n3)nc2)CC1 [Pal‐OEG3] | 8.71 mM (≈ 7140 µg/mL) |
| COCCOCCOP(=O)(OCCOCCOC)N1CCN(c2ccc(Nc3ncc4cc(C(=O)N(C)C)n(C5CCCC5)c4n3)nc2)CC1 [Rib‐OEG2] | 12.3 mM (≈ 8840 µg/mL) |
| COCCOCCOCCOP(=O)(OCCOCCOCCOC)N1CCN(c2ccc(Nc3ncc4cc(C(=O)N(C)C)n(C5CCCC5)c4n3)nc2)CC1 [Rib‐OEG3] | 13.5 mM (≈ 10900 µg/mL) |

molecular target: T2, cyclin‐dependent kinase 4 (CDK4) (Homo sapiens, UniProt P11802); assay: CDK4 cell free enzyme (kinase) inhibition assay, luminescence; format: biochemical; details: 1 % DMSO, duplicates
T2 construct: purchased biomol
Method: as §1
as §2, with “Binding Assays (CDK4):[21] […]” for “Binding Studies (ROS1):[21] ROS1 assays are performed with the following substances: Cer‐OEG2 , Cer‐OEG3 , Cer‐OEG8 , Cri‐OEG2 , Cri‐OEG3 and Cri‐OEG8 .”, “enzyme (10” for “enzyme (5”, “of 10x CDK4 substrate peptide” for “of IGF‐1Rtide (1 mg/mL)”

T2 sequence (P11802 whole entry): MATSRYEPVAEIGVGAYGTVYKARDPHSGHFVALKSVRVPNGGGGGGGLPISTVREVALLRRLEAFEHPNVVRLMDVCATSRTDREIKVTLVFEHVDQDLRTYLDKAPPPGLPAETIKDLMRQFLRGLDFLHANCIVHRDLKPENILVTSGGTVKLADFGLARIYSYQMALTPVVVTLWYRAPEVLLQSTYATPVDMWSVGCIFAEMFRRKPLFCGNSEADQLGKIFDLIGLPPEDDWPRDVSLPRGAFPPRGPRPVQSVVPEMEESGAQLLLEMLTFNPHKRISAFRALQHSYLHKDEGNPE
T2 sequence (P30281 whole entry partner): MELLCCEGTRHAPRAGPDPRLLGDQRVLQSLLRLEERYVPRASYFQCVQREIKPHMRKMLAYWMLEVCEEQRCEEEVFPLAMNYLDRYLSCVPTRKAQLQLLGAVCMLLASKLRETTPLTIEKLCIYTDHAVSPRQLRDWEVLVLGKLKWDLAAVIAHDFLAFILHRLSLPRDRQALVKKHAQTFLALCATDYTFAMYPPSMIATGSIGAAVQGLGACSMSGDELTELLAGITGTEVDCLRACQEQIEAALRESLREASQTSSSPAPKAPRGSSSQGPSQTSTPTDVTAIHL

| Structure (SMILES) | IC50 |
| --- | --- |
| COCCOCCOP(=O)(OCCOCCOC)N1CCN(c2ccc(Nc3ncc4c(C)c(C(C)=O)c(=O)n(C5CCCC5)c4n3)nc2)CC1 [Pal‐OEG2] | 1000 nM |
| COCCOCCOCCOP(=O)(OCCOCCOCCOC)N1CCN(c2ccc(Nc3ncc4c(C)c(C(C)=O)c(=O)n(C5CCCC5)c4n3)nc2)CC1 [Pal‐OEG3] | 215 to 270 nM and 215 nM |
| COCCOCCOP(=O)(OCCOCCOC)N1CCN(c2ccc(Nc3ncc4cc(C(=O)N(C)C)n(C5CCCC5)c4n3)nc2)CC1 [Rib‐OEG2] | 110 nM |
| COCCOCCOCCOP(=O)(OCCOCCOCCOC)N1CCN(c2ccc(Nc3ncc4cc(C(=O)N(C)C)n(C5CCCC5)c4n3)nc2)CC1 [Rib‐OEG3] | 370 nM |
